From patent US10973778B2, “Using edible carriers to produce Curcuma extracts for oral and topical use” (California Northstate College of Pharmacy, LLC, priority 2012, dated 2021)

Experiment: UV absorption spectra of sunscreen agents and Curcuma longa L. extract
Format: physicochemical
Settings: absorption spectrum in methanol; for wavelength above which absorption is low / very low: octocrylene 0.5 ug/ml, avobenzone 5 ug/ml (FIGS. 1B, 1E); for wavelength above which absorption is practically zero / practically no absorption: 0.5-20 ug/ml depending on agent (FIGS. 1A-1D)
Source text: FIGS. 1A-1F compare the absorption spectra of representative current state-of-the-art sunscreen agents to the absorption spectra of Curcuma longa L., according to some embodiments.
The representative sunscreen agents show peaks in the absorption spectrum between the wavelengths of 290 nm to 400 nm which is the range of interest. Ideally, a desired agent would absorb energy across the entire range of 290 nm to 400 nm. In FIGS. 1A-1E, for example, a variety of peak positions are seen in the representative agents, where a high (desirable) absorption can be shown at the wavelength of the peak but there is usually a low or zero absorption at the trough, which is, of course, undesirable. Even combinations of sunscreen agents with peaks and troughs may leave areas within the wavelength range that are not covered, leaving wavelengths for which there is little or no UV protection, an undesirable situation.

| wavelength above which absorption is low / very low | wavelength above which absorption is practically zero / practically no absorption | SMILES |
| --- | --- | --- |
| about 390 nm |  | COc1ccc(C(=O)CC(=O)c2ccc(C(C)(C)C)cc2)cc1 [avobenzone] |
| about 370 nm | about 380 nm | CCCCC(CC)COC(=O)C(C#N)=C(c1ccccc1)c1ccccc1 (centres unmarked) [octocrylene] |
|  | about 380 nm | COc1ccc(C(=O)c2ccccc2)c(O)c1 [oxybenzone] |
|  | about 340 nm | CC1CC(OC(=O)c2ccccc2O)CC(C)(C)C1 (centres unmarked) [homosalate] |
